Test results taken from US11298298B2, “Method for producing nonaqueous composition for external use on skin” (CHANEL PARFUMS BEAUTE, priority 2017, dated 2022).

Test: Particle size measurement by dynamic light scattering
Type: physicochemical
Details: steps (a) to (c) without palmitoyl-L-carnitine chloride
Description: [1] Particle Size Measurement
The particle size of particles contained in the nonaqueous composition for external use on the skin 1 week after preparation was measured by the dynamic light scattering method. Specifically, the measurement was performed on the number mode using a nanoparticle analysis system (Zetasizer Nano ZSP model manufactured by Malvern Instruments Ltd.).

Substance: sucrose erucic acid ester
- Particle size of composition containing particles of the surfactant alone: about 2.5 nm
